Measured values taken from patent publication US20200172966A1 (YAMAGUCHI UNIVERSITY, priority 2015, published 2020).

Assay: incidence of side effect (hematologic toxicity) by single nucleotide polymorphism genotype in Japanese patients with colon cancer who had received irinotecan
Type: in vivo, human
Protocol: By using TaqMan SNP Assays Human (manufactured by Applied Biosystems, Inc.) and LightCycler (R) 480 Probe Master (manufactured by Roche Diagnostics, Inc.), Universal ProbeLibrary (manufactured by Roche Diagnostics, Inc.), and LightCycler 480 System II (manufactured by Roche Diagnostics, Inc.), 10 ng of genomic DNA was subjected to genotyping. After incubation at 95° C. for 10 min, the sample was subjected to PCR amplification with 55 cycles for rs1980576, rs2272761, and rs9425343, 45 cycles for rs12577167, rs7265854, and rs1135640, or 40 cycles for rs1547 (1 cycle consisted of 92° C. for 15 sec and 60° C. for 60 sec). The fluorescence emitted from the PCR products were measured.
The “Odds ratio” in Table 3 refers to an odds ratio indicating the occurrence of a side effect as calculated using a Fisher's exact test on a single nucleotide polymorphism being homozygous for a wild-type or homozygous for a variant type.
The term (P value/C.-A.) in Table 4 is the same as in Table 2. […] The term “Odds ratio” in Table 5 is the same as in Table 3.

[1] = N = 67, homozygous UGT1A1*28, homozygous *6, compound heterozygous excluded (Table 2), ACOX1 rs1135640 C/C
[2] = N = 67, homozygous UGT1A1*28, homozygous *6, compound heterozygous excluded (Table 2), ACOX1 rs1135640 C/G
[3] = N = 67, homozygous UGT1A1*28, homozygous *6, compound heterozygous excluded (Table 2), ACOX1 rs1135640 G/G
[4] = N = 67, homozygous UGT1A1*28, homozygous *6, compound heterozygous excluded (Table 3), ACOX1 rs1135640 G/G
[5] = N = 67, homozygous UGT1A1*28, homozygous *6, compound heterozygous excluded, ACOX1 rs1135640 C/C, C/G
[6] = N = 67, homozygous UGT1A1*28, homozygous *6, compound heterozygous excluded, APCDD1L rs1980576 A/A
[7] = N = 67, homozygous UGT1A1*28, homozygous *6, compound heterozygous excluded, APCDD1L rs1980576 A/A, A/G
[8] = N = 67, homozygous UGT1A1*28, homozygous *6, compound heterozygous excluded, APCDD1L rs1980576 A/G, G/G
[9] = N = 67, homozygous UGT1A1*28, homozygous *6, compound heterozygous excluded, APCDD1L rs1980576 G/G
[10] = N = 67, homozygous UGT1A1*28, homozygous *6, compound heterozygous excluded, APCDD1L rs7265854 C/C
[11] = N = 67, homozygous UGT1A1*28, homozygous *6, compound heterozygous excluded, APCDD1L rs7265854 T/T, T/C
[12] = N = 67, homozygous UGT1A1*28, homozygous *6, compound heterozygous excluded, EDEM3 rs9425343 T/G, G/G
[13] = N = 67, homozygous UGT1A1*28, homozygous *6, compound heterozygous excluded, EDEM3 rs9425343 T/T
[14] = N = 67, homozygous UGT1A1*28, homozygous *6, compound heterozygous excluded, R3HCC1 rs2272761 G/A, A/A
[15] = N = 68, homozygous UGT1A1*28, homozygous *6, compound heterozygous excluded, APCDD1L rs1980576 A/A
[16] = N = 68, homozygous UGT1A1*28, homozygous *6, compound heterozygous excluded, APCDD1L rs1980576 A/G
[17] = N = 68, homozygous UGT1A1*28, homozygous *6, compound heterozygous excluded, APCDD1L rs1980576 G/G
[18] = N = 68, homozygous UGT1A1*28, homozygous *6, compound heterozygous excluded, APCDD1L rs7268854 A/A
[19] = N = 68, homozygous UGT1A1*28, homozygous *6, compound heterozygous excluded, APCDD1L rs7268854 A/G
[20] = N = 68, homozygous UGT1A1*28, homozygous *6, compound heterozygous excluded, APCDD1L rs7268854 G/G
[21] = N = 68, homozygous UGT1A1*28, homozygous *6, compound heterozygous excluded, CSMD2 rs474474 A/A
[22] = N = 68, homozygous UGT1A1*28, homozygous *6, compound heterozygous excluded, CSMD2 rs474474 A/G
[23] = N = 68, homozygous UGT1A1*28, homozygous *6, compound heterozygous excluded, CSMD2 rs474474 G/G
[24] = N = 68, homozygous UGT1A1*28, homozygous *6, compound heterozygous excluded, EDEM3 rs9425343 G/G
[25] = N = 68, homozygous UGT1A1*28, homozygous *6, compound heterozygous excluded, EDEM3 rs9425343 T/G
[26] = N = 68, homozygous UGT1A1*28, homozygous *6, compound heterozygous excluded, EDEM3 rs9425343 T/T
[27] = N = 68, homozygous UGT1A1*28, homozygous *6, compound heterozygous excluded, GATA2 rs2335052 A/A
[28] = N = 68, homozygous UGT1A1*28, homozygous *6, compound heterozygous excluded, GATA2 rs2335052 G/A
[29] = N = 68, homozygous UGT1A1*28, homozygous *6, compound heterozygous excluded, GATA2 rs2335052 G/G
[30] = N = 68, homozygous UGT1A1*28, homozygous *6, compound heterozygous excluded, MKKS rs1547 C/C
[31] = N = 68, homozygous UGT1A1*28, homozygous *6, compound heterozygous excluded, MKKS rs1547 C/T
[32] = N = 68, homozygous UGT1A1*28, homozygous *6, compound heterozygous excluded, MKKS rs1547 T/T
[33] = N = 68, homozygous UGT1A1*28, homozygous *6, compound heterozygous excluded, OR5112 rs12577167 A/A
[34] = N = 68, homozygous UGT1A1*28, homozygous *6, compound heterozygous excluded, OR5112 rs12577167 A/G
[35] = N = 68, homozygous UGT1A1*28, homozygous *6, compound heterozygous excluded, OR5112 rs12577167 G/G
[36] = N = 68, homozygous UGT1A1*28, homozygous *6, compound heterozygous excluded, R3HCC1 rs2272761 A/A
[37] = N = 68, homozygous UGT1A1*28, homozygous *6, compound heterozygous excluded, R3HCC1 rs2272761 G/A
[38] = N = 68, homozygous UGT1A1*28, homozygous *6, compound heterozygous excluded, R3HCC1 rs2272761 G/G

SMILES: CCc1c2c(nc3ccc(OC(=O)N4CCC(N5CCCCC5)CC4)cc13)-c1cc3c(c(=O)n1C2)COC(=O)[C@]3(O)CC [irinotecan, 1,4′-Bipiperidine-1′-carboxylic acid (S)-4,11-diethyl-3,4,12,14-tetrahydro-4-hydroxy-3,14-dioxo-1H-pyrano[3′,4′:6,7]indolizino[1,2-b]quinolin-9-yl ester]
- irinotecan side effect observed (68 cases considered to have a low risk of a side effect in view of the UGT1A gene polymorphisms): 42.6%
- Toxicity No [1]: 3
- Toxicity Yes [1]: 6
- Toxicity No [2]: 14
- Toxicity Yes [2]: 15
- Toxicity No [3]: 21
- Toxicity Yes [3]: 8
- Toxicity No [4]: 21
- Toxicity Yes [4]: 8
- Toxicity No [5]: 17
- Toxicity Yes [5]: 21
- Toxicity No [6]: 16
- Toxicity Yes [6]: 5
- Toxicity No [7]: 35
- Toxicity Yes [7]: 21
- Toxicity No [8]: 22
- Toxicity Yes [8]: 24
- Toxicity No [9]: 3
- Toxicity Yes [9]: 8
- Toxicity No [10]: 8
- Toxicity Yes [10]: 1
- Toxicity No [11]: 30
- Toxicity Yes [11]: 28
- Toxicity No [12]: 31
- Toxicity Yes [12]: 17
- Toxicity No [13]: 7
- Toxicity Yes [13]: 12
- Toxicity No [14]: 32
- Toxicity Yes [14]: 29
- Toxicity No (N = 67, homozygous UGT1A1*28, homozygous *6, compound heterozygous excluded, R3HCC1 rs2272761 G/G): 6
- Toxicity No [15]: 16
- Toxicity Yes [15]: 5
- Toxicity No [16]: 20
- Toxicity Yes [16]: 16
- Toxicity No [17]: 3
- Toxicity Yes [17]: 8
- Toxicity No [18]: 13
- Toxicity Yes [18]: 13
- Toxicity No [19]: 18
- Toxicity Yes [19]: 15
- Toxicity No [20]: 8
- Toxicity Yes [20]: 1
- Toxicity No [21]: 16
- Toxicity Yes [21]: 17
- Toxicity No [22]: 18
- Toxicity Yes [22]: 8
- Toxicity No [23]: 5
- Toxicity Yes [23]: 4
- Toxicity No [24]: 10
- Toxicity Yes [24]: 3
- Toxicity No [25]: 21
- Toxicity Yes [25]: 14
- Toxicity No [26]: 8
- Toxicity Yes [26]: 12
- Toxicity No [27]: 5
- Toxicity Yes [27]: 3
- Toxicity No [28]: 20
- Toxicity Yes [28]: 10
- Toxicity No [29]: 14
- Toxicity Yes [29]: 16
- Toxicity No [30]: 20
- Toxicity Yes [30]: 8
- Toxicity No [31]: 16
- Toxicity Yes [31]: 16
- Toxicity No [32]: 3
- Toxicity Yes [32]: 5
- Toxicity No [33]: 19
- Toxicity Yes [33]: 20
- Toxicity No [34]: 14
- Toxicity Yes [34]: 8
- Toxicity No [35]: 6
- Toxicity Yes [35]: 1
- Toxicity No [36]: 22
- Toxicity Yes [36]: 21
- Toxicity No [37]: 11
- Toxicity Yes [37]: 8
- Toxicity No [38]: 6
- Toxicity Yes [38]: 0
